Earlier results, collected in US8431577B2, “Crystalline form of eszopiclone, composition, preparation and uses thereof” (Tianjin Tasly Group Co., Ltd., priority 2008, dated 2013).

Settings: comparative acute toxicity research; cited from earlier work

SMILES: CN1CCN(C(=O)O[C@H]2c3nccnc3C(=O)N2c2ccc(Cl)cn2)CC1 [S-zopiclone, (+)-(S)-(4-methylpiperazine-1-carboxylate)(6-(5-chloropyridinyl-2-yl)-7-carbonyl-6,7-dihydro-5-H-pyrrolo[3,4-b]pyrazin-5-yl ester)]
- acute toxicity compared with racemic zopiclone: low toxicity than that of the racemic zopiclone
